# Columns and labels:
# [1] = tested on: panel of solid and haematological tumor cell lines (e.g., Hs578t, SiHa, MDA-MB-231); assay: MTS cell proliferation assay; type: cell-based; conditions: 72-96 hours incubation, 10 mM lactate medium or RPMI 1640 medium, cell line not given, read-out: Cytotoxicity [IC50: μM]
# Procedure: The anti-proliferation effect of MCT inhibition was investigated across a panel of solid and haematological tumor cell lines. Cells were routinely cultured in their appropriate growth medium. On day 1, between 10,000-25,000 cells/well (e.g., Hs578t: 15,000 cells/well, SiHa: 10,000 cells/well, and MDA-MB-231: 25,000 cells/well) were plated into 96-well plates. 100 μL of phosphate buffered saline solution was added to the external wells to prevent media evaporation. Plates were incubated in growth medium overnight at 37° C. in the presence of 5% CO2. On day 2, dry weight compound stocks were dissolved to a concentration of 10 mM in 100% DMSO. Compounds were further diluted in the assay medium; 10 mM lactate medium (without glucose, pyruvate, and glutamine) or RPMI 1640 medium (without pyruvate and glutamine) to generate a final dose range of 1 nM to 10 μM. Growth medium in the 96-well plate was replaced with the assay medium (10 mM lactate medium or RPMI medium or appropriate medium), and compounds were added to each well in the plate at different concentrations via serial dilution or pre-prepared solutions in assay medium. […] The absorbance of the plates was read on a Spectramax M5e plate reader using […] measurement wavelength. Dose response curves were plotted and IC50 values were calculated using GraphPad Prism. […]
# [2] = tested on: monocarboxylate transporters; assay: Lactate detection assay in tumor cell lines; type: cell-based; conditions: intracellular lactate, Lactate-glo kit, 24 hours incubation; cell line not stated
# Procedure: Cells are maintained in their appropriate growth medium (RPMI medium with 2 g/L glucose, 2 mM L-glutamine supplemented with 10% FBS and P/S (growth medium). 15,000-25,000 cells were seeded into white 96-well plates in growth medium and incubated for 24 hours at 37° C. and 5% CO2. A duplicate plate was also seeded for normalization by an MTS assay. Dry weight compound stocks were dissolved to a concentration of 10 mM in 100% DMSO. Compounds were further diluted in the assay medium (Lactate media: 10 mM lactate, 5% FBS, and 1×P/S; Glucose media: RPMI, 5% FBS, and 1×P/S). Growth media was changed 24 hours later to assay medium containing 10 μM compound or vehicle (DMSO) control and incubated for 24 hours. Conditioned media was collected and the cells were washed in 200 μL ice-cold PBS. […] After a 5 minute incubation, 12.5 μL Neutralization solution (1 M Trizma) is incubated for 1 minute. Intracellular lactate measurements were performed using a Lactate-glo kit (Promega). Briefly, the lactate detection reagent is mixed immediately before use and 50 μL is pipetted into each well and incubated at room temperature for 1 hour. Lactate is oxidized by enzymatic reactions to generate light. The luminescence is recorded using a Spectramax M5e plate reader and the concentration of lactate is determined using a known concentration of spiked lactate in PBS using GraphPad Prism.
SMILES,IC50 [1],IC50 [2]
"COc1cc(Cl)ccc1NC(=O)N(C)c1cc2oc(=O)c(C(=O)O)cc2s1 [Example 18, 2-(3-(4-chloro-2-methoxyphenyl)-1-methylureido)-5-oxo-5H-thieno[3,2-b]pyran-6-carboxylic acid]",< 1 µM,
"CN(C(=O)NC1CCCCC1)c1cc2oc(=O)c(C(=O)O)cc2s1 [Example 7, 2-(3-cyclohexyl-1-methylureido)-5-oxo-5H-thieno[3,2-b]pyran-6-carboxylic acid]",,< 1 µM
"CCOc1ccccc1NC(=O)N(C)c1cc2oc(=O)c(C(=O)O)cc2s1 [Example 10, 2-(3-(2-ethoxyphenyl)-1-methylureido)-5-oxo-5H-thieno[3,2-b]pyran-6-carboxylic acid]",,< 1 µM
"CN(C(=O)Nc1ccc(Cl)c(Cl)c1)c1cc2oc(=O)c(C(=O)O)cc2s1 [Example 39, 2-(3-(3,4-dichlorophenyl)-1-methylureido)-5-oxo-5H-thieno[3,2-b]pyran-6-carboxylic acid]",< 1 µM,

# Source: patent US20220281888A1, “BICYCLIC CARBOXYLATES AS MODULATORS OF TRANSPORTERS AND USES THEREOF” (NIROGY THERAPEUTICS, INC., priority 2019, published 2022)
